Assay results as given in the supplement of paper PMC10307832.

Key:
Experiment in all cases: relative viability (nuclei count vs DMSO), 5 days (fraction); higher = more cells survive
A549 = system: A549
Outline: (§1)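 The day after seeding in 1536-well plates, lung cancer cell lines were treated by pin tool with a single drug, or with a fixed anchor-drug dose together with five library-drug doses (not always all listed) in √10 steps. After 5 days, a combined fix-and-stain solution (final 0.05% Triton X-100, 1% formaldehyde, 1 ug/ml Hoechst) was added. Nuclei counted on 4× images gave relative viability as treated counts over vehicle counts, reported as the median of duplicate plates.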

Calu-6 = system: Calu-6
Outline: as §1

EBC-1 = system: EBC-1
Outline: as §1

IA-LM = system: IA-LM
Outline: as §1

NCI-H1299 = system: NCI-H1299
Outline: as §1

NCI-H1703 = system: NCI-H1703
Outline: as §1

NCI-H1993 = system: NCI-H1993
Outline: as §1

NCI-H23 = system: NCI-H23
Outline: as §1

NCI-H596 = system: NCI-H596
Outline: as §1

## O=C(O)c1ccc(-c2c[nH]c3ncc(-c4ccccc4)cc23)cc1C1CCCC1 + Cc1nc(NC(=O)N2CCC[C@H]2C(N)=O)sc1-c1ccnc(C(C)(C)C(F)(F)F)c1 [Alpelisib] (partner 2 µM)
A549; first compound 0.04 µM
  relative viability: 0.728
A549; first compound 0.1265 µM
  relative viability: 0.787
A549; first compound 0.4 µM
  relative viability: 0.869
A549; first compound 1.265 µM
  relative viability: 0.499
Calu-6; first compound 0.04 µM
  relative viability: 1.04
Calu-6; first compound 0.1265 µM
  relative viability: 0.978
Calu-6; first compound 0.4 µM
  relative viability: 0.825
Calu-6; first compound 1.265 µM
  relative viability: 0.682
EBC-1; first compound 0.04 µM
  relative viability: 0.848
EBC-1; first compound 0.1265 µM
  relative viability: 0.719
EBC-1; first compound 0.4 µM
  relative viability: 0.939
EBC-1; first compound 1.265 µM
  relative viability: 0.48
IA-LM; first compound 0.04 µM
  relative viability: 0.77
IA-LM; first compound 0.1265 µM
  relative viability: 0.913
IA-LM; first compound 0.4 µM
  relative viability: 0.713
IA-LM; first compound 1.265 µM
  relative viability: 0.737
NCI-H1299; first compound 0.04 µM
  relative viability: 1
NCI-H1299; first compound 0.1265 µM
  relative viability: 1.09
NCI-H1299; first compound 0.4 µM
  relative viability: 1.05
NCI-H1299; first compound 1.265 µM
  relative viability: 0.957
NCI-H1703; first compound 0.1265 µM
  relative viability: 0.405
NCI-H1703; first compound 0.4 µM
  relative viability: 0.395
NCI-H1703; first compound 1.265 µM
  relative viability: 0.332
NCI-H1993; first compound 0.04 µM
  relative viability: 0.656
NCI-H1993; first compound 0.4 µM
  relative viability: 0.68
NCI-H1993; first compound 1.265 µM
  relative viability: 0.594
NCI-H23; first compound 0.04 µM
  relative viability: 0.61
NCI-H23; first compound 0.1265 µM
  relative viability: 0.852
NCI-H23; first compound 0.4 µM
  relative viability: 0.672
NCI-H23; first compound 1.265 µM
  relative viability: 0.423
NCI-H596; first compound 0.04 µM
  relative viability: 0.492
NCI-H596; first compound 0.1265 µM
  relative viability: 0.427
NCI-H596; first compound 0.4 µM
  relative viability: 0.484
NCI-H596; first compound 1.265 µM
  relative viability: 0.402

## NC(=O)Nc1cc(-c2cccc(F)c2)sc1C(=O)N[C@H]1CCCNC1 [AZD7762] + C[C@@H](Oc1cc(-c2cnn(C3CCNCC3)c2)cnc1N)c1c(Cl)ccc(F)c1Cl [Crizotinib] (partner 1 µM)
A549; first compound 0.01 µM
  relative viability: 0.795
A549; first compound 0.03162 µM
  relative viability: 0.821
A549; first compound 0.1 µM
  relative viability: 0.775
A549; first compound 0.3162 µM
  relative viability: 0.424
A549; first compound 1 µM
  relative viability: 0.0696
Calu-6; first compound 0.01 µM
  relative viability: 0.897
Calu-6; first compound 0.03162 µM
  relative viability: 0.813
Calu-6; first compound 0.1 µM
  relative viability: 0.651
Calu-6; first compound 0.3162 µM
  relative viability: 0.162
Calu-6; first compound 1 µM
  relative viability: 0.0886
EBC-1; first compound 0.01 µM
  relative viability: 0.199
EBC-1; first compound 0.03162 µM
  relative viability: 0.209
EBC-1; first compound 0.1 µM
  relative viability: 0.167
EBC-1; first compound 0.3162 µM
  relative viability: 0.187
EBC-1; first compound 1 µM
  relative viability: 0.167
IA-LM; first compound 0.01 µM
  relative viability: 1.04
IA-LM; first compound 0.03162 µM
  relative viability: 0.907
IA-LM; first compound 0.1 µM
  relative viability: 1.26
IA-LM; first compound 0.3162 µM
  relative viability: 0.858
IA-LM; first compound 1 µM
  relative viability: 0.277
NCI-H1299; first compound 0.01 µM
  relative viability: 0.966
NCI-H1299; first compound 0.03162 µM
  relative viability: 0.975
NCI-H1299; first compound 0.1 µM
  relative viability: 0.974
NCI-H1299; first compound 0.3162 µM
  relative viability: 0.826
NCI-H1299; first compound 1 µM
  relative viability: 0.307
NCI-H1703; first compound 0.01 µM
  relative viability: 0.314
NCI-H1703; first compound 0.03162 µM
  relative viability: 0.169
NCI-H1703; first compound 0.1 µM
  relative viability: 0.136
NCI-H1703; first compound 0.3162 µM
  relative viability: 0.0849
NCI-H1703; first compound 1 µM
  relative viability: 0.105
NCI-H1993; first compound 0.01 µM
  relative viability: 0.952
NCI-H1993; first compound 0.03162 µM
  relative viability: 0.957
NCI-H1993; first compound 0.1 µM
  relative viability: 0.729
NCI-H1993; first compound 0.3162 µM
  relative viability: 0.873
NCI-H1993; first compound 1 µM
  relative viability: 0.808
NCI-H23; first compound 0.01 µM
  relative viability: 0.687
NCI-H23; first compound 0.03162 µM
  relative viability: 0.517
NCI-H23; first compound 0.1 µM
  relative viability: 0.542
NCI-H23; first compound 0.3162 µM
  relative viability: 0.323
NCI-H23; first compound 1 µM
  relative viability: 0.203
NCI-H596; first compound 0.01 µM
  relative viability: 0.991
NCI-H596; first compound 0.03162 µM
  relative viability: 0.942
NCI-H596; first compound 0.1 µM
  relative viability: 1.02
NCI-H596; first compound 0.3162 µM
  relative viability: 1.11
NCI-H596; first compound 1 µM
  relative viability: 0.863

## O=C(O)c1ccc(-c2c[nH]c3ncc(-c4ccccc4)cc23)cc1C1CCCC1 + CC1(C)CCC(c2ccc(Cl)cc2)=C(CN2CCN(c3ccc(C(=O)NS(=O)(=O)c4ccc(N[C@H](CCN5CCOCC5)CSc5ccccc5)c(S(=O)(=O)C(F)(F)F)c4)cc3)CC2)C1 [Navitoclax] (partner 0.5 µM)
A549; first compound 0.04 µM
  relative viability: 1.09
A549; first compound 0.1265 µM
  relative viability: 1.24
A549; first compound 0.4 µM
  relative viability: 1.17
A549; first compound 1.265 µM
  relative viability: 0.939
Calu-6; first compound 0.04 µM
  relative viability: 0.821
Calu-6; first compound 0.1265 µM
  relative viability: 0.732
Calu-6; first compound 0.4 µM
  relative viability: 0.719
Calu-6; first compound 1.265 µM
  relative viability: 0.55
EBC-1; first compound 0.04 µM
  relative viability: 0.475
EBC-1; first compound 0.1265 µM
  relative viability: 0.404
EBC-1; first compound 0.4 µM
  relative viability: 0.352
EBC-1; first compound 1.265 µM
  relative viability: 0.279
IA-LM; first compound 0.04 µM
  relative viability: 0.925
IA-LM; first compound 0.1265 µM
  relative viability: 0.829
IA-LM; first compound 0.4 µM
  relative viability: 0.89
IA-LM; first compound 1.265 µM
  relative viability: 0.576
NCI-H1299; first compound 0.04 µM
  relative viability: 1.07
NCI-H1299; first compound 0.1265 µM
  relative viability: 1.08
NCI-H1299; first compound 0.4 µM
  relative viability: 1.02
NCI-H1299; first compound 1.265 µM
  relative viability: 0.942
NCI-H1703; first compound 0.1265 µM
  relative viability: 1.11
NCI-H1703; first compound 0.4 µM
  relative viability: 1.03
NCI-H1703; first compound 1.265 µM
  relative viability: 1.11
NCI-H1993; first compound 0.04 µM
  relative viability: 0.955
NCI-H1993; first compound 0.4 µM
  relative viability: 0.986
NCI-H1993; first compound 1.265 µM
  relative viability: 0.795
NCI-H23; first compound 0.04 µM
  relative viability: 0.804
NCI-H23; first compound 0.1265 µM
  relative viability: 0.944
NCI-H23; first compound 0.4 µM
  relative viability: 0.757
NCI-H23; first compound 1.265 µM
  relative viability: 0.724
NCI-H596; first compound 0.04 µM
  relative viability: 0.82
NCI-H596; first compound 0.1265 µM
  relative viability: 1.12
NCI-H596; first compound 0.4 µM
  relative viability: 0.869
NCI-H596; first compound 1.265 µM
  relative viability: 0.884
